Where two headings read alike, the source gives them in different places.
Columns and labels:
[1] = tested on: MOLT-4 cells; experiment: CTG (CellTiter-Glo) cell viability assay, MOLT-4; assay type: cell-based; conditions: Homo sapiens, 3 day incubation, read-out: CTG Cell Viability Assay - MOLT-4 3 day: Average external-IC50
Protocol: Compound-mediated viability effect on MOLT-4 and Caki-2 was quantitatively determined using the CellTiter-Glo® Luminescent Cell Viability Assay kit from Promega (Catalog number G7570) following manufacturer's recommended procedures. Briefly, MOLT-4 and Caki-2 cells were seeded into 384 well plates (Grenier Bio-One, Catalog number 781080) with a density of 10,000 cells per well. Compounds were then added to the assay plate with final top concentration of 10 μM and 1:3 dilution series with total of 9 doses. The final DMSO concentration is normalized to 0.2%. The assay plates were incubated at 37° C., for 3 days under 5% CO2. Then the assay plate was equilibrated at room temperature for 10 minutes. To determine cell viability, 30 uL CellTiter Glo reagent was added to each well and the assay plate was centrifuged at 1000 rpm for 30 second, incubated at room temperature for 10 min, and analyzed by detecting the luminescence using a multimode plate reader (EnVision 2105, PerkinElmer). The data was then analyzed by software Prism 7.0 from GraphPad and the dose response curves are fit using a three-parameter logistic equation to calculate IC50.
The letter codes for MOLT-4 IC50 include: A (<0.1 μM); B (0.1-1.0 μM); C (>1.0-3.0 μM); and D (>3.0 μM). The letter codes for Caki-2 IC50 include: A (<0.1 μM); B (0.1-1.0 μM); C (>1.0-10.0 μM); and D (>10.0 μM).

[2] = target: T1, BCL-XL (Homo sapiens, UniProt Q07817); experiment: Bcl-xL ELISA degradation in MOLT-4 cells, 6 h; assay type: cell-based; conditions: for DC50: read-out: Bcl-xL ELISA in MOLT-4 degradation 6 h: Mean external-Abs DC50
T1 construct: endogenous in cells; host or cells: MOLT-4
T1 sequence (Q07817 whole entry): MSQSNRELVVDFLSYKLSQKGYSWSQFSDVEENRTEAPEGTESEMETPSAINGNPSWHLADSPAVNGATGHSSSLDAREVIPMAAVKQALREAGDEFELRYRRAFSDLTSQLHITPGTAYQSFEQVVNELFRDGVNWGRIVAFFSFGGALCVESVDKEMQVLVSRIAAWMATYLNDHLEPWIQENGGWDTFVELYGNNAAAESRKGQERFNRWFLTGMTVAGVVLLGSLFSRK
Protocol: The letter codes for BCL-XL DC50 include: A (<0.01 μM); B (0.01-0.1 μM); C (>[…]); D (>0.5-1.0 μM); and E (>1.0 μM). The letter codes for Dmax % include A (>75%); B (50 to 75%); C (<50%).

SMILES | IC50 ([1]; MOLT-4, 72 h) [µM] | Dmax [2] [%] | DC50 [2] [µM] | IC50 ([1]; 72 h) [µM]
Cc1ncsc1-c1ccc(CNC(=O)[C@@H]2C[C@@H](O)CN2C(=O)[C@@H](NC(=O)C2(F)CC2)C(C)(C)C)c(OCC(C)N2CCN(CC[C@H](CSc3ccccc3)Nc3ccc(S(=O)(=O)NC(=O)c4ccc(N5CCN(CC6=C(c7ccc(Cl)cc7)CCC(C)(C)C6)CC5)cc4)cc3S(=O)(=O)C(F)(F)F)CC2)c1 (some centres unmarked) [I-155] | < 0.1 |  |  | 
Cc1cc(N(CCCC(=O)N(C)CCCCOCC(=O)N[C@H](C(=O)N2C[C@H](O)C[C@H]2C(=O)N[C@@H](C)c2ccc(-c3scnc3C)cc2)C(C)(C)C)c2ccc(-c3cnn(CC4CCCCC4)c3C)c(C(=O)O)n2)nnc1Nc1nc2ccccc2s1 [I-157] | > 3 |  |  | 
Cc1ncsc1-c1ccc([C@@H](CC(=O)N(C)CCCCCC(=O)N2CCN(CC[C@H](CSc3ccccc3)Nc3ccc(S(=O)(=O)NC(=O)c4ccc(N5CCN(CC6=C(c7ccc(Cl)cc7)CCC(C)(C)C6)CC5)cc4)cc3S(=O)(=O)C(F)(F)F)CC2)NC(=O)[C@@H]2C[C@@H](O)CN2C(=O)[C@@H](NC(=O)C2(F)CC2)C(C)(C)C)cc1 [I-159] | 0.1 to 1 |  |  | 
Cc1ncsc1-c1ccc(CNC(=O)[C@@H]2C[C@@H](O)CN2C(=O)[C@@H](NC(=O)C2(F)CC2)C(C)(C)C)c(OCC(=O)N(C)CC[C@H](CSc2ccccc2)Nc2ccc(S(=O)(=O)NC(=O)c3ccc(N4CCN(CC5=C(c6ccc(Cl)cc6)CCC(C)(C)C5)CC4)cc3)cc2S(=O)(=O)C(F)(F)F)c1 [I-161] | > 3 |  |  | 
Cc1ncsc1-c1ccc([C@H](C)NC(=O)[C@@H]2C[C@@H](O)CN2C(=O)[C@@H](NC(=O)CN2CCN(CCNC(=O)c3nc(N4CCc5cccc(C(=O)Nc6nc7ccccc7s6)c5C4)ccc3-c3cnn(CC4CCCCC4)c3C)CC2)C(C)(C)C)cc1 [I-164] | 0.1 to 1 |  |  | 
Cc1ncsc1-c1ccc([C@H](C)NC(=O)[C@@H]2C[C@@H](O)CN2C(=O)C(c2cc(N3CC4(CCN(CCNC(=O)c5nc(N6CCc7cccc(C(=O)Nc8nc9ccccc9s8)c7C6)ccc5-c5cnn(CC6CCCCC6)c5C)CC4)C3)no2)C(C)C)cc1 (some centres unmarked) [I-165] | 0.1 to 1 |  |  | 
Cc1ncsc1-c1ccc(CNC(=O)[C@@H]2C[C@@H](O)CN2C(=O)[C@@H](NC(=O)C2(F)CC2)C(C)(C)C)c(OCCN2CCN(CC[C@H](CSc3ccccc3)Nc3ccc(S(=O)(=O)NC(=O)c4csc(N5CCc6cccc(C(=O)Nc7nc8ccccc8s7)c6C5)n4)cc3S(=O)(=O)C(F)(F)F)CC2)c1 [I-167] | 0.1 to 1 |  |  | 
Cc1ncsc1-c1ccc(CNC(=O)[C@@H]2C[C@@H](O)CN2C(=O)[C@@H](NC(=O)C2(F)CC2)C(C)(C)C)c(OCCCCC(=O)N2CCN(CCCC3(Cn4ncc(-c5ccc(N6CCc7cccc(C(=O)Nc8nc9ccccc9s8)c7C6)nc5C(=O)O)c4C)CCCCC3)CC2)c1 [I-169] | 0.1 to 1 |  |  | 
Cc1ncsc1-c1ccc([C@H](C)NC(=O)[C@@H]2C[C@@H](O)CN2C(=O)[C@@H](c2cc(N3CCN(c4ccc(S(=O)(=O)NC(=O)c5nc(N6CCc7cccc(C(=O)Nc8nc9ccccc9s8)c7C6)ccc5-c5cnn(CC6CCCCC6)c5C)cc4)CC3)no2)C(C)C)cc1 [I-214] | 0.1 to 1 | > 75 | 0.01 to 0.1 | 
Cc1ncsc1-c1ccc(CNC(=O)[C@@H]2C[C@@H](O)CN2C(=O)[C@@H](NC(=O)C2(F)CC2)C(C)(C)C)c(OCC2CN(C3CCC(NC(=O)c4nc(N5CCc6cccc(C(=O)Nc7nc8ccccc8s7)c6C5)ccc4-c4cnn(CC5CCCCC5)c4C)CC3)C2)c1 (some centres unmarked) [I-216] | 1 to 3 | < 50 | > 1 | 
Cc1ncsc1-c1ccc([C@H](C)NC(=O)[C@@H]2C[C@@H](O)CN2C(=O)[C@@H](NC(=O)CCCCCCCOc2nc(N3CCc4cccc(C(=O)Nc5nc6ccccc6s5)c4C3)ccc2-c2cnn(CC3CCCCC3)c2C)C(C)(C)C)cc1 [I-218] | > 3 | < 50 |  | 
Cc1ncsc1-c1ccc(CNC(=O)[C@@H]2C[C@@H](O)CN2C(=O)[C@@H](NC(=O)C2(F)CC2)C(C)(C)C)c(OCCc2ccc(S(=O)(=O)NC(=O)c3nc(N4CCc5cccc(C(=O)Nc6nc7ccccc7s6)c5C4)ccc3-c3cnn(CC4CCCCC4)c3C)cc2)c1 [I-219] | 0.1 to 1 | > 75 | 0.01 to 0.1 | 
Cc1ncsc1-c1ccc([C@H](C)NC(=O)[C@@H]2C[C@@H](O)CN2C(=O)[C@@H](NC(=O)CN(C)CCCS(=O)(=O)NC(=O)c2nc(N3CCc4cccc(C(=O)Nc5nc6ccccc6s5)c4C3)ccc2-c2cnn(CC3CCCCC3)c2C)C(C)(C)C)cc1 [I-220] |  | > 75 | < 0.01 | < 0.1
Cc1ncsc1-c1ccc([C@H](C)NC(=O)[C@@H]2C[C@@H](O)CN2C(=O)[C@@H](NC(=O)CCCCN(C)CCCCNC(=O)c2nc(N3CCc4cccc(C(=O)Nc5nc6ccccc6s5)c4C3)ccc2-c2cnn(CC3CCCCC3)c2C)C(C)(C)C)cc1 [I-221] | > 3 | < 50 | > 1 | 
Cc1ncsc1-c1ccc(CNC(=O)[C@@H]2C[C@@H](O)CN2C(=O)[C@@H](NC(=O)C2(F)CC2)C(C)(C)C)c(OCCCCCCNCc2nc(N3CCc4cccc(C(=O)Nc5nc6ccccc6s5)c4C3)ccc2-c2cnn(CC3CCCCC3)c2C)c1 [I-222] | 1 to 3 | < 50 |  | 
Cc1ncsc1-c1ccc([C@H](C)NC(=O)[C@@H]2C[C@@H](O)CN2C(=O)[C@@H](NC(=O)Cc2ccc(S(=O)(=O)NC(=O)c3nc(N4CCc5cccc(C(=O)Nc6nc7ccccc7s6)c5C4)ccc3-c3cnn(CC4CCCCC4)c3C)cc2)C(C)(C)C)cc1 [I-287] | 0.1 to 1 | > 75 | 0.01 to 0.1 | 

The next lines start with results.

IC50 ([1]; MOLT-4, 72 h) [µM] | Dmax [2] [%] | DC50 [2] [µM] | SMILES | IC50 ([1]; 72 h) [µM]
> 3 |  |  | Cc1cc(N(CCCC(=O)N(C)CCOCC(=O)N[C@H](C(=O)N2C[C@H](O)C[C@H]2C(=O)N[C@@H](C)c2ccc(-c3scnc3C)cc2)C(C)(C)C)c2ccc(-c3cnn(CC4CCCCC4)c3C)c(C(=O)O)n2)nnc1Nc1nc2ccccc2s1 [I-156] | 
> 3 |  |  | Cc1ncsc1-c1ccc([C@H](C)NC(=O)[C@@H]2C[C@@H](O)CN2C(=O)[C@@H](NC(=O)CCCCCC(=O)N2CCN(CC[C@H](CSc3ccccc3)Nc3ccc(S(=O)(=O)NC(=O)c4cccc(N5CCc6cccc(C(=O)Nc7nc8ccccc8s7)c6C5)n4)cc3S(=O)(=O)C(F)(F)F)CC2)C(C)(C)C)cc1 [I-160] | 
0.1 to 1 |  |  | Cc1ncsc1-c1ccc([C@@H](C)NC(=O)[C@@H]2C[C@@H](O)CN2C(=O)[C@@H](NC(=O)CCCCCC(=O)N(C)CCCC2(Cn3ncc(-c4ccc(N5CCc6cccc(C(=O)Nc7nc8ccccc8s7)c6C5)nc4C(=O)O)c3C)CCCCC2)C(C)(C)C)cc1 [I-162] | 
0.1 to 1 |  |  | Cc1ncsc1-c1ccc([C@H](C)NC(=O)[C@@H]2C[C@@H](O)CN2C(=O)[C@@H](NC(=O)COC2CCN(CCNC(=O)c3nc(N4CCc5cccc(C(=O)Nc6nc7ccccc7s6)c5C4)ccc3-c3cnn(CC4CCCCC4)c3C)CC2)C(C)(C)C)cc1 [I-163] | 
0.1 to 1 |  |  | Cc1ncsc1-c1ccc([C@H](C)NC(=O)[C@@H]2C[C@@H](O)CN2C(=O)[C@H](NC(=O)CCCCCCCS(=O)(=O)NC(=O)c2nc(N3CCc4cccc(C(=O)Nc5nc6ccccc6s5)c4C3)ccc2-c2cnn(CC3CCOCC3)c2C)C(C)(C)C)cc1 [I-166] | 
0.1 to 1 | < 50 | > 1 | Cc1ncsc1-c1ccc(CNC(=O)[C@@H]2C[C@@H](O)CN2C(=O)[C@@H](NC(=O)C2(F)CC2)C(C)(C)C)c(CCCN2CCN(CC[C@H](CSc3ccccc3)Nc3ccc(S(=O)(=O)NC(=O)c4ccc(N5CCN(CC6=C(c7ccc(Cl)cc7)CCC(C)(C)C6)CC5)cc4)cc3S(=O)(=O)C(F)(F)F)CC2)c1 [I-211] | 
0.1 to 1 | 50 to 75 | 0.1 to 0.5 | Cc1ncsc1-c1ccc(CNC(=O)[C@@H]2C[C@@H](O)CN2C(=O)[C@@H](NC(=O)C2(F)CC2)C(C)(C)C)c(OC2CCN(CCNC(=O)c3nc(N4CCc5cccc(C(=O)Nc6nc7ccccc7s6)c5C4)ccc3-c3cnn(CC4CCCCC4)c3C)CC2)c1 [I-215] | 
0.1 to 1 | 50 to 75 | 0.01 to 0.1 | Cc1ncsc1-c1ccc([C@H](C)NC(=O)[C@@H]2C[C@H](O)CN2C(=O)[C@@H](NC(=O)CCCCCS(=O)(=O)NC(=O)c2nc(N3CCc4cccc(C(=O)Nc5nc6ccccc6s5)c4C3)ccc2-c2cnn(CC34CC5CC(CC(C5)C3)C4)c2C)C(C)(C)C)cc1 [I-286] | 
0.1 to 1 | 50 to 75 | 0.5 to 1 | Cc1ncsc1-c1ccc([C@H](C)NC(=O)[C@@H]2C[C@@H](O)CN2C(=O)[C@H](c2cc(OCC3CCN(CCNC(=O)c4nc(N5CCc6cccc(C(=O)Nc7nc8ccccc8s7)c6C5)ccc4-c4cnn(CC5CCCCC5)c4C)CC3)no2)C(C)C)cc1 [I-288] | 
0.1 to 1 | 50 to 75 | 0.01 to 0.1 | Cc1ncsc1-c1ccc([C@H](C)NC(=O)[C@@H]2C[C@@H](O)CN2C(=O)[C@@H](c2cc(OCC3CCN(CCNC(=O)c4nc(N5CCc6cccc(C(=O)Nc7nc8ccccc8s7)c6C5)ccc4-c4cnn(CC5CCCCC5)c4C)CC3)no2)C(C)C)cc1 [I-289] | 
